Experimental findings from EP0846119B1, “THIENOPYRIMIDINE DERIVATIVES, THEIR PRODUCTION AND USE AS ENDOTHELIN ANTAGONISTS” (Takeda Chemical Industries, Ltd., priority 1995, dated 1997) are described below.

The target in experiment [1] is T1, human endothelin-A (ETA) receptors (Homo sapiens, UniProt P25101).
T1 construct: made in house; host or cells: Sf9 insect cells (membrane fractions)
T1 sequence (P25101 21-427): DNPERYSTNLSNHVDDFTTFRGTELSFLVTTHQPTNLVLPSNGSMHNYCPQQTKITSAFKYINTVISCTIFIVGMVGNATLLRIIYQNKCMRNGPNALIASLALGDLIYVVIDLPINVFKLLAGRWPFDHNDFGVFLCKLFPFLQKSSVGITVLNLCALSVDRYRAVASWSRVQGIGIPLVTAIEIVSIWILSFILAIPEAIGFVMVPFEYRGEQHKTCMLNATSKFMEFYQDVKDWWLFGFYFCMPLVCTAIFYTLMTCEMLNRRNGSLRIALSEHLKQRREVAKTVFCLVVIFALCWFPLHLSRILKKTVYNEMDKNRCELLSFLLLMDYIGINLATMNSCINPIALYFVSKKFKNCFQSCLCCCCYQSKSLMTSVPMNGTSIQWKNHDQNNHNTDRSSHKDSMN
Kind of experiment: Binding Test to ETA receptor expressed in an insect cell Sf9 ([125I]endothelin-1 displacement). Particulars: Sf9 membrane fractions; [125I]endothelin-1; 25°C, 60 minutes; concentration causing PMB=50%; read-out: IC50 value: µM Human endotherin-A receptor. The protocol:
Binding Test to ETA receptor expressed in an insect cell Sf9:
Endothelin (ET) receptors were prepared by diluting fractions of insect cell (Sf9) membrane having human endothelin-A (ETA) receptors expressed, with an assay buffer {20 mM Tris-HCl, 2 mM EGTA (ethyleneglycol bls(2-aminoethylether) tetra acetic acid), 5 mM magnesium acetate, 0.1% BSA (bovine serum albumin), 0.03% NaN3, 0.5 mM PMSF (phenyl methyl sulfonyl fluoride), 20 µg/ml leupeptin, 4 µg/ml E-64 (products of the Peptide Institute, Japan), 1 µg/ml pepstatin, (pH 7.2)} respectively in a concentration of 1.4 µg/ml in the former case and 0.7 µg/ml in the latte case.
To 100 µl of each portion was added 5 nM[^125I] endothelin-1 (2 µl). A dimethylsulfoxide solution (3 µl) of the test compound was added thereto and incubated at 25°C for 60 minutes.
And, to determine the maximum binding amount (B0) and non-specific binding amount (NSB), lots to which a dimethyl sulfoxide solution (3 µl) or a dimethyl sulfoxide solution (3 µl) containing endothelin-1 (10^-3M) had been added, were also incubated.
These lots were supplemented with 0.05% CHAPS(3-[(3-chloroamidopropyl)dimethylammonio]-1-propanesulfonate)-assay buffer (1.5 ml), subjected to filtration through a glass fiber filter GF/F (trade name; product of Whatman Ltd. (England)), and then washed with the same buffer (1.5 ml)).
(§1) Radioactivity on the filter was counted in a gamma-counter to determine the Percent Maximum Binding (PMB) in accordance with the aforesaid calculation formula. The concentration causing PMB=50% was determined as IC50 value.

Experiment [2] concerns the target T2, human endothelin-B (ETB) receptors (Homo sapiens, UniProt P24530).
T2 construct: made in house; host or cells: Sf9 insect cells (membrane fractions)
T2 sequence (P24530 27-442): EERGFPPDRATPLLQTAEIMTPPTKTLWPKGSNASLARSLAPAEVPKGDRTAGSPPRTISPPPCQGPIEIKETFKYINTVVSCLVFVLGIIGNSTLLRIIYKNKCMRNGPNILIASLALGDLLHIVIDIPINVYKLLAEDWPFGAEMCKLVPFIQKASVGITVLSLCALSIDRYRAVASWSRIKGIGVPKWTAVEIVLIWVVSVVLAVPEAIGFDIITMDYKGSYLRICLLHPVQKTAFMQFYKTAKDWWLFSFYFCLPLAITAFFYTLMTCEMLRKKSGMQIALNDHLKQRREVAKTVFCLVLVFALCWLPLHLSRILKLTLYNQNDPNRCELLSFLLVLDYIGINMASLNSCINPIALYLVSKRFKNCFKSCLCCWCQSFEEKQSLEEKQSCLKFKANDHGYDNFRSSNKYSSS
As to the kind of experiment: Binding Test to ETB receptor expressed in an insect cell Sf9 ([125I]endothelin-1 displacement). The following applies: Sf9 membrane fractions; [125I]endothelin-1; 25°C, 60 minutes; concentration causing PMB=50%; read-out: IC50 value: µM Human endotherin-B receptor. The protocol: Binding Test to ETB receptor expressed in an insect cell Sf9:
Endothelin (ET) receptors were prepared by diluting fractions of insect cell (Sf9) membrane having human endothelin-B (ETB) receptors expressed, with an assay buffer {200 mM Tris-HCl, 2 mM EGTA (ethylenegiycol bis(2-aminoethylether) tetra acetic acid), 5 mM magnesium acetate, 0.1% BSA (bovine serum albumin), 0.03% NaN3, 0.5 mM PMSF(phenyl methyl sulfonyl fluoride), 20 µg/ml leupeptin, 4 µg/ml E-64 (products of the Peptide Institute), 1 µg/ml pepstatin, (pH 7.2)} respectively in a concentration of 1.4 µg/ml in the former case and 0.7 µg/ml in the latter case.
To 100 µl of each portion was added 5 nM[^125I] endothelin-1 (2 µl). A dimethylsulfoxide solution (3 µl) of the sample was added thereto and incubated at 25°C fpr 60 minutes.
And, to determine the maximum binding amount (B0) and non-specific binding amount (NSB), lots to which a dimethyl sulfoxide solution (3 µl) or a dimethyl sulfoxide solution (3 µl) containing endothelin-1 (10^-5M) had been added, were also incubated.
These lots were supplemented with 0.05% CHAPS(3-[(3-chloroamidopropyl)dimethylammonio]-1-propanesulfonate)-assay buffer (1.5 ml), subjected to filtration through a glass fiber filter GF/F (trade name; product of Whatman Ltd. (England)), and then washed with the same buffer (1.5 ml).
as §1

Usually IC50 stands for the concentration that inhibits the measured activity by half.

As for `CCCOc1ccc(-c2sc3c(c2CNS(C)(=O)=O)c(=O)n(CC(=O)O)c(=O)n3Cc2ccccc2SC)cc1` [11(7), 2,4(1H,3H)-Dioxo-6-(4-propoxyphenyl)-1-(2-methylthiobenzyl)-5-(methanesulfonamidomethyl)-thieno[2,3-d]pyrimidine-3-acetic acid], the IC50 in experiment [1] was 0.018 µM; in experiment [2], 0.22 µM.

Take `CCCOc1ccc(-c2sc3c(c2CNS(=O)(=O)CC)c(=O)n(CC(=O)O)c(=O)n3Cc2ccccc2SC)cc1` [11(9), 2,4(1H,3H)-Dioxo-6-(4-propoxyphenyl)-1-(2-methylthiobenzyl)-5-(ethanesulfonamidomethyl)-thieno[2,3-d]pyrimidine-3-acetic acid]: the figures for the IC50 in experiment [1] and in experiment [2] were 0.015 µM and 0.11 µM, respectively.

Regarding `CCCOc1ccc(-c2sc3c(c2CNS(=O)(=O)C(C)C)c(=O)n(CC(=O)O)c(=O)n3Cc2ccccc2SC)cc1` [11(15), 2,4(1H,3H)-Dioxo-6-(4-propoxyphenyl)-1-(2-methylthiobenzyl)-5-(isopropanesulfonamidomethyl)-thieno[2,3-d]pyrimidine-3-acetic acid], the IC50 in experiment [1] came out at 0.011 µM; in experiment [2] it was 0.094 µM.

Take `CCCS(=O)(=O)NCc1c(-c2ccc(OCOC)cc2)sc2c1c(=O)n(CC(=O)O)c(=O)n2Cc1ccccc1SC` [11(17)]: the IC50 in experiment [1] is 0.022 µM; in experiment [2] it was 0.047 µM.

Turning to `COCOc1ccc(-c2sc3c(c2CNS(=O)(=O)C(C)C)c(=O)n(CC(=O)O)c(=O)n3Cc2ccccc2SC)cc1` [11(11), 2,4(1H,3H)-Dioxo-6-(4-methoxymethoxyphenyl)-1-(2-methylthiobenzyl)-5-(isopropanesulfonamidomethyl)thieno[2,3-d]pyrimidine-3-acetic acid], the results for the IC50 in experiment [1] and in experiment [2] were 0.0066 µM and 0.09 µM, respectively.
